For assay [1], the target named is EGFR del19/T790M/C797S (Homo sapiens, UniProt P00533, C797S/DEL746-750/T790M). Description: Biochemical EGFR kinase assay (Lance Ultra TR-FRET), triple mutant del19/T790M/C797S. An outline of the steps: (§1)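 Kinase activity is measured by TR-FRET phosphopeptide detection. Compounds span 0.003 μM to 10 μM; the 1 h reaction at room temperature is quenched with EDTA, then labelled antibody (2 nM) is incubated 60 min before reading.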
In general terms: In TR-FRET formats the signal depends on donor and acceptor labels being close together.

Assay [2] has as its target EGFR L858R/T790M/C797S (Homo sapiens, UniProt P00533, C797S/L858R/T790M). The assay is described as follows: Biochemical EGFR kinase assay (Lance Ultra TR-FRET), triple mutant L858R/T790M/C797S. An outline of the steps: as §1
Assay [3] has as its target EGFR del19/C797S (Homo sapiens, UniProt P00533, C797S/DEL746-750). Description: Biochemical EGFR kinase assay (Lance Ultra TR-FRET), double mutant del19/C797S. An outline of the steps: as §1
For assay [4], the target named is EGFR L858R/C797S (Homo sapiens, UniProt P00533, C797S/L858R). Description: Biochemical EGFR kinase assay (Lance Ultra TR-FRET), double mutant L858R/C797S. An outline of the steps:
as §1

Assay [5] has as its target EGFR wildtype (WT) (Homo sapiens, UniProt P00533). Description: Biochemical EGFR kinase assay (Lance Ultra TR-FRET), wildtype. An outline of the steps:
as §1

Setting [6] is: IC50 del19/T790M/C797S (nM) 100 μM ATP, 100 μM ATP.
The mark [7] stands for this setting: Km ATP, read-out: IC50 del19/T790M/C797S (nM) Km ATP.
The mark [8] stands for this setting: IC50 L858R/T790M/C797S (nM) 100 μM ATP, 100 μM ATP.
Where [9] appears, read: Km ATP, read-out: IC50 L858R/T790M/C797S (nM) Km ATP.
The mark [10] stands for this setting: IC50 del19/C797S (nM) 100 μM ATP, 100 μM ATP.
[11] abbreviates: Km ATP, read-out: IC50 del19/C797S (nM) Km ATP.
[12] abbreviates: IC50 L858R/C797S (nM) 100 μM ATP, 100 μM ATP.
The mark [13] stands for this setting: Km ATP, read-out: IC50 L858R/C797S (nM) Km ATP.
[14] abbreviates: IC50 WT (nM) 100 μM ATP, 100 μM ATP.
Where [15] appears, read: Km ATP, read-out: IC50 WT (nM) Km ATP.

Where two headings read alike, the source gives them in different places.

Chain of EGFR L858R/T790M/C797S (P00533 25-1210 T790M/C797S/L858R): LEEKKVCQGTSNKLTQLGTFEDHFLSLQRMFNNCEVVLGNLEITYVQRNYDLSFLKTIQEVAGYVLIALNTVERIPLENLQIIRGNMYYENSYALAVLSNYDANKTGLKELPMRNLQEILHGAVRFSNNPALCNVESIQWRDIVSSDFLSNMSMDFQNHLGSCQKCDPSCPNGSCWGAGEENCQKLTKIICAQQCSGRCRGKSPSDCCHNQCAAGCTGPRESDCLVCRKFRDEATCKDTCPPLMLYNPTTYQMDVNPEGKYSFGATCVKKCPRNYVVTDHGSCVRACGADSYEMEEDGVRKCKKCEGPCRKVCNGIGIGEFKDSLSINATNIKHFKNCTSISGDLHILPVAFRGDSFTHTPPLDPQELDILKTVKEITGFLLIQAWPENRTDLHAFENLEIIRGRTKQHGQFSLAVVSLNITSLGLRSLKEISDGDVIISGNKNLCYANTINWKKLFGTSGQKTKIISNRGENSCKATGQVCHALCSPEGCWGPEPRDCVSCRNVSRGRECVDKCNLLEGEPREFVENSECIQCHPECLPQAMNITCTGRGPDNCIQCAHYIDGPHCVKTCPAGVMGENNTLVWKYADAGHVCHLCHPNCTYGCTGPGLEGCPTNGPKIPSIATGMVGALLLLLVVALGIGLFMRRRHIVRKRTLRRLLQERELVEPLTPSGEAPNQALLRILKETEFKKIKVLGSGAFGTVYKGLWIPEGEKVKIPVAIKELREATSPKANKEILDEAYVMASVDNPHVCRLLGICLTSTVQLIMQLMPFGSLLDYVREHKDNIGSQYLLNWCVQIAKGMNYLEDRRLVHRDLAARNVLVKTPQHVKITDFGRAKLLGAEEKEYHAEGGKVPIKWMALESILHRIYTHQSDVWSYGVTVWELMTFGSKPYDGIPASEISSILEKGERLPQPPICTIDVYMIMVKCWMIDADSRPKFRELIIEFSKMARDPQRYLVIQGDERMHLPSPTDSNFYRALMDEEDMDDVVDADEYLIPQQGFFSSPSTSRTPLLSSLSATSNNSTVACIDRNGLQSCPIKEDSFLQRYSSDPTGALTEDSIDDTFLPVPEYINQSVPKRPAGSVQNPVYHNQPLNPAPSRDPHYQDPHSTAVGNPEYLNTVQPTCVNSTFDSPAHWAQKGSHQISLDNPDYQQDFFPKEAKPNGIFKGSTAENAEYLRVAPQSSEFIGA
Chain of EGFR L858R/C797S (P00533 25-1210 C797S/L858R): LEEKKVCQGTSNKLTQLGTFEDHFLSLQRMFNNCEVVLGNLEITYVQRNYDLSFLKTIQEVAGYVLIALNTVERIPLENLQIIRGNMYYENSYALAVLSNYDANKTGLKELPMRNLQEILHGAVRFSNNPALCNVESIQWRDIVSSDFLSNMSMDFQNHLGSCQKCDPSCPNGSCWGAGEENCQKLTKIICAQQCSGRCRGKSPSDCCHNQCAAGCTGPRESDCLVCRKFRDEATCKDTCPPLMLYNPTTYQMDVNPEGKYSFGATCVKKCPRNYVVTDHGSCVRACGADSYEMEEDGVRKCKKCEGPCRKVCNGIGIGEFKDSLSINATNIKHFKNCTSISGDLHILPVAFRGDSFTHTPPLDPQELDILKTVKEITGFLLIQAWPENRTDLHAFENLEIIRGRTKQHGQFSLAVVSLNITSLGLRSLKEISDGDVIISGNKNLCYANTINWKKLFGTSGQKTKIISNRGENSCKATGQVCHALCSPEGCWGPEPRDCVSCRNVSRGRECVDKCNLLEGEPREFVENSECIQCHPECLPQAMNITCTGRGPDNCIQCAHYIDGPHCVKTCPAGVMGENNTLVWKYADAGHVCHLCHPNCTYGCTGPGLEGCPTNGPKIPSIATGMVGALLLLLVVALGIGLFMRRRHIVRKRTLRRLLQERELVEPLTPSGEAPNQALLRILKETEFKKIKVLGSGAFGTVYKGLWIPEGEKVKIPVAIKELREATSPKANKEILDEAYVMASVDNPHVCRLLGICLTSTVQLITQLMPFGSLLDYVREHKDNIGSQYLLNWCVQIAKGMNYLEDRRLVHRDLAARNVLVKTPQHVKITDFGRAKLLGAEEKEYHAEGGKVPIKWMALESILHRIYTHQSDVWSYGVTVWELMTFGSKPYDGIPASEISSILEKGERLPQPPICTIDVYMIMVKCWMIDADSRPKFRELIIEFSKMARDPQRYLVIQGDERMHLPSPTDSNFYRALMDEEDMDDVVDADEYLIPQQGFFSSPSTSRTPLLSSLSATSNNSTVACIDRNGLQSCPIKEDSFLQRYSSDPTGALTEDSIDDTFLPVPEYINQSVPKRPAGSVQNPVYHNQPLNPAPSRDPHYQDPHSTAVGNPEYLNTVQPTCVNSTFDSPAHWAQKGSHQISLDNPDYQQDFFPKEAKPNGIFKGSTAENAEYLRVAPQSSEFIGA
Chain of EGFR del19/T790M/C797S (P00533 with tags, fused parts or gaps DEL746-750/T790M/C797S): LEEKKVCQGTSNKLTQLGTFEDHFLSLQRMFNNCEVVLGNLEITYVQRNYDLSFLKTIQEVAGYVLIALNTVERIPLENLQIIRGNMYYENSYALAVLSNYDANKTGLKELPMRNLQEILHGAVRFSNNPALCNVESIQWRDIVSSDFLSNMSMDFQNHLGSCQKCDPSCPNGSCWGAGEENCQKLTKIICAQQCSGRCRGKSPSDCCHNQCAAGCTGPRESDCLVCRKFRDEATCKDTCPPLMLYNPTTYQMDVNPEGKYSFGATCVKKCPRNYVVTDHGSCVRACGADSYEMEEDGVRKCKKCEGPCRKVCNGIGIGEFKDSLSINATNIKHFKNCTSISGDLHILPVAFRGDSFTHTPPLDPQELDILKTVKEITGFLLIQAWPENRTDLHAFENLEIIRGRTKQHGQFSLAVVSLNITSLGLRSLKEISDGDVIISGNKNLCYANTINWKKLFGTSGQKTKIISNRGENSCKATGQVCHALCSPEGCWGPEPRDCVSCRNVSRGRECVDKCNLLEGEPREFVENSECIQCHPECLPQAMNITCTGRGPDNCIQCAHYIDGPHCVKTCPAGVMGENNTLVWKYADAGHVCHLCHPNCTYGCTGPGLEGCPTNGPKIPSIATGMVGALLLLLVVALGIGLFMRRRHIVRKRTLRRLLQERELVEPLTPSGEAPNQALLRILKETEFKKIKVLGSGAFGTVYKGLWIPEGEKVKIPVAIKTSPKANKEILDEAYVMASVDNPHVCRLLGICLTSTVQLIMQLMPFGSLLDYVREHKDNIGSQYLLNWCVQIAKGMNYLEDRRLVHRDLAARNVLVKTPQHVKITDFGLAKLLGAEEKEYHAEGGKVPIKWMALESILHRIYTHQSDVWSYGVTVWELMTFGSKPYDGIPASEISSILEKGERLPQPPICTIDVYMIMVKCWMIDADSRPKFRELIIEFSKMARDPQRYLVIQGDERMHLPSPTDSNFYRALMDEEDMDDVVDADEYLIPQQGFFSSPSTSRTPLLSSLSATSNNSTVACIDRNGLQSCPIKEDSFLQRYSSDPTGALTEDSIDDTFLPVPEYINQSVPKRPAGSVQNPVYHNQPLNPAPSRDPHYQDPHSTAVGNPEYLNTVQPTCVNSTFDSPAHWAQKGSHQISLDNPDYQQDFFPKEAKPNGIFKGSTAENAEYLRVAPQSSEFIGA
Chain of EGFR wildtype (WT) (P00533 25-1210): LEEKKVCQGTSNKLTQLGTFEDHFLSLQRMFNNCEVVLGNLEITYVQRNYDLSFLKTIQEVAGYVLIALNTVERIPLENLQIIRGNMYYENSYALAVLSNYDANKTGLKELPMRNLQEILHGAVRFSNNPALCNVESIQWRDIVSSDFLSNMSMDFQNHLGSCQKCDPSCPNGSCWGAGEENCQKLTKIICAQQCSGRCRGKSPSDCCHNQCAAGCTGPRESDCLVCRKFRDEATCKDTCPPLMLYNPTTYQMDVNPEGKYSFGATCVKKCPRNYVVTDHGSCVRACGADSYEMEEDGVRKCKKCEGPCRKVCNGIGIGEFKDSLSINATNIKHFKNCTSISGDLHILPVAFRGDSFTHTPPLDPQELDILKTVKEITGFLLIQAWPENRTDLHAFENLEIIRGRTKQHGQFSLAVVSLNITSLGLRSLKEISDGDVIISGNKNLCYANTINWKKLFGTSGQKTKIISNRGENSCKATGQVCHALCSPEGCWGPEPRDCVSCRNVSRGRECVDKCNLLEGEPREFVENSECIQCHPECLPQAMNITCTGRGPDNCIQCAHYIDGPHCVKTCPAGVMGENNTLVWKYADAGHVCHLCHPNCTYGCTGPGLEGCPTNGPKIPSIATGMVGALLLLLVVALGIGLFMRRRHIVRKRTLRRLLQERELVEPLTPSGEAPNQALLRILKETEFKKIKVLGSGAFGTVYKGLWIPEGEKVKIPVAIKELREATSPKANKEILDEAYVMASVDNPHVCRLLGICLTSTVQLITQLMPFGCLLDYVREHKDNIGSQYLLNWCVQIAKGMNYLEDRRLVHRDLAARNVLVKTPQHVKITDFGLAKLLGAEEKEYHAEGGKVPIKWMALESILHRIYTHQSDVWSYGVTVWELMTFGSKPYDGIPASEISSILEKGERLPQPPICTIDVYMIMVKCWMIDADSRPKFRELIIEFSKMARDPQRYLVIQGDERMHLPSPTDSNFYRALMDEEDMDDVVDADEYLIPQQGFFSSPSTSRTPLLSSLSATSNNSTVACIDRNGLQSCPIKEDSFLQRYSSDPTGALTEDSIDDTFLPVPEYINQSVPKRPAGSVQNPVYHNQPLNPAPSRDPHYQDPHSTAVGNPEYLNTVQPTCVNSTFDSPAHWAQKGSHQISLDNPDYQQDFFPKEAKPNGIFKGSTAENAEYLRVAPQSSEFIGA

On to `CN(CC(F)F)C(=O)[C@H]1CC[C@@H](Nc2cc(Nc3ccnc(-c4cnn(S(=O)(=O)C5CC5)c4)n3)ncc2-c2ccn(C)n2)CC1` [Example 235, (1s,4s)-4-((2-((2-(1-(Cyclopropylsulfonyl)-1H-pyrazol-4-yl)pyrimidin-4-yl)amino)-5-(1-methyl-1H-pyrazol-3-yl)pyridin-4-yl)amino)-N-(2,2-difluoroethyl)-N-methylcyclohexane-1-carboxamide], for which the IC50 was found to be 0.2 nM in assay [1] (setting [6]); 0.2 nM in assay [1] (setting [7]); 0.2 nM in assay [2] (setting [8]); 0.1 nM in assay [2] (setting [9]); 1.1 nM in assay [3] (setting [10]); 2.5 nM in assay [3] (setting [11]). The IC50 stood at 7 nM in assay [4] (setting [12]), 0.3 nM in assay [4] (setting [13]), 616 nM in assay [5] (setting [14]) and 1.6 nM in assay [5] (setting [15]).

With `O=S(=O)(C1CC1)n1cc(-c2nccc(Nc3cc(N[C@H]4CC[C@](O)(C(F)F)CC4)c(-c4ccn(C(F)F)n4)cn3)n2)cn1` [Example 200, (1s,4s)-4-((2-((2-(1-(Cyclopropylsulfonyl)-1H-pyrazol-4-yl)pyrimidin-4-yl)amino)-5-(1-(difluoromethyl)-1H-pyrazol-3-yl)pyridin-4-yl)amino)-1-(difluoromethyl)cyclohexan-1-ol], the IC50 in assay [1] (setting [6]) was 1 nM; in assay [1] (setting [7]) it was 0.6 nM; in assay [2] (setting [8]), 2.1 nM; in assay [2] (setting [9]) it was 0.4 nM; in assay [3] (setting [11]), 13.5 nM; in assay [4] (setting [12]), 293 nM. The IC50 was 15.4 nM in assay [4] (setting [13]), greater than 10000 nM in assay [5] (setting [14]) and 2850 nM in assay [5] (setting [15]).

In the case of `Cc1ccn(-c2cnc(Nc3ccnc(-c4cnn(S(=O)(=O)C5CC5)c4)n3)cc2N[C@H]2CC[C@@](C)(O)CC2)n1` [Example 168, (1s,4s)-4-((2-((2-(1-(Cyclopropylsulfonyl)-1H-pyrazol-4-yl)pyrimidin-4-yl)amino)-5-(3-methyl-1H-pyrazol-1-yl)pyridin-4-yl)amino)-1-methylcyclohexan-1-ol], the IC50 in assay [1] (setting [7]) worked out at 0.2 nM; in assay [2] (setting [9]), 0.1 nM; in assay [3] (setting [11]), 6.5 nM; in assay [4] (setting [13]) it was 3 nM; in assay [5] (setting [15]), 26.9 nM.

In the case of `Cn1ccc(-c2cnc(Nc3ccnc(-c4cnn(S(=O)(=O)C5CC5)c4)n3)cc2N[C@H]2CC[C@@H](CCO)CC2)n1` [Example 136, 2-((1s,4s)-4-((2-((2-(1-(Cyclopropylsulfonyl)-1H-pyrazol-4-yl)pyrimidin-4-yl)amino)-5-(1-methyl-1H-pyrazol-3-yl)pyridin-4-yl)amino)cyclohexyl)ethan-1-ol], the IC50 is 0.9 nM in assay [1] (setting [6]); 0.8 nM in assay [1] (setting [7]); 1 nM in assay [2] (setting [8]); 0.4 nM in assay [2] (setting [9]); 1.2 nM in assay [3] (setting [10]); 0.3 nM in assay [3] (setting [11]). The IC50 came to 0.8 nM in assay [4] (setting [12]), 0.2 nM in assay [4] (setting [13]) and 321 nM in assay [5] (setting [14]).

As to `Cc1nn(CC(F)(F)F)cc1-c1nccc(Nc2cc(N[C@H]3CC[C@@](C)(O)CC3)c(-c3ccn(C(F)F)n3)cn2)n1` [Example 320, (1s,4s)-4-((5-(1-(Difluoromethyl)-1H-pyrazol-3-yl)-2-((2-(3-methyl-1-(2,2,2-trifluoroethyl)-1H-pyrazol-4-yl)pyrimidin-4-yl)amino)pyridin-4-yl)amino)-1-methylcyclohexan-1-ol], the IC50 was 0.4 nM in assay [1] (setting [7]); 0.2 nM in assay [2] (setting [9]); 3.9 nM in assay [3] (setting [11]); 1.8 nM in assay [4] (setting [13]); 33.5 nM in assay [5] (setting [15]).

On to `O=S(=O)(C1CC1)n1cc(-c2nccc(Nc3cc(NC[C@H]4CC[C@H](NCC(F)F)CC4)c(-c4ccn(C(F)F)n4)cn3)n2)cn1` [Example 130, N^2-(2-(1-(Cyclopropylsulfonyl)-1H-pyrazol-4-yl)pyrimidin-4-yl)-N^4-(((1r,4r)-4-((2,2-difluoroethyl)amino)cyclohexyl)methyl)-5-(1-(difluoromethyl)-1H-pyrazol-3-yl)pyridine-2,4-diamine], for which the IC50 in assay [1] (read-out: IC50 del19/T790M/C797S (nM) 100 μM ATP, 100 μM ATP) is 2.1 nM; in assay [2] (read-out: IC50 L858R/T790M/C797S (nM) 100 μM ATP, 100 μM ATP) it was 2 nM; in assay [3] (read-out: IC50 del19/C797S (nM) 100 μM ATP, 100 μM ATP), 6.3 nM; in assay [4] (read-out: IC50 L858R/C797S (nM) 100 μM ATP, 100 μM ATP), 96.5 nM; in assay [5] (read-out: IC50 WT (nM) 100 μM ATP, 100 μM ATP) it was greater than 10000 nM.

Consider `CNC[C@H]1CC[C@H](CNc2cc(Nc3ccnc(-c4cnn(S(=O)(=O)C5CC5)c4)n3)ncc2-c2ccn(C(F)F)n2)CC1` [Example 192, N^2-(2-(1-(Cyclopropylsulfonyl)-1H-pyrazol-4-yl)pyrimidin-4-yl)-5-(1-(difluoromethyl)-1H-pyrazol-3-yl)-N^4-(((1r,4r)-4-((methylamino)methyl)cyclohexyl)methyl)pyridine-2,4-diamine], for which the IC50 in assay [1] (setting [6]) is 0.4 nM; in assay [1] (setting [7]), 0.2 nM; in assay [2] (setting [8]), 0.2 nM; in assay [2] (setting [9]), 0.1 nM; in assay [3] (setting [10]), 0.7 nM; in assay [3] (setting [11]), 0.3 nM. The IC50 is 3.7 nM in assay [4] (setting [12]), 0.4 nM in assay [4] (setting [13]), 384 nM in assay [5] (setting [14]) and 1.1 nM in assay [5] (setting [15]).

Regarding `Cn1ccc(-c2cnc(Nc3ccnc(-c4cnn(S(=O)(=O)C5CC5)c4)n3)cc2N[C@H]2CC[C@](O)(CO)CC2)n1` [Example 221, (1s,4s)-4-((2-((2-(1-(Cyclopropylsulfonyl)-1H-pyrazol-4-yl)pyrimidin-4-yl)amino)-5-(1-methyl-1H-pyrazol-3-yl)pyridin-4-yl)amino)-1-(hydroxymethyl)cyclohexan-1-ol], the IC50 in assay [1] (setting [6]) came to 0.3 nM; in assay [1] (setting [7]) it was 0.3 nM; in assay [2] (setting [8]), 0.2 nM; in assay [2] (setting [9]) it was 0.2 nM; in assay [3] (setting [10]), 0.5 nM; in assay [3] (setting [11]), 0.4 nM. For the same compound, the IC50 in assay [4] (setting [12]) came out at 4.9 nM; in assay [4] (setting [13]) it was 1 nM; in assay [5] (setting [14]), 1510 nM; in assay [5] (setting [15]), 4.9 nM.

As to `O=S(=O)(C1CC1)n1cc(-c2nccc(Nc3cc(N[C@H]4CCC[C@H](O)C4)c(-c4ccn(C(F)F)n4)cn3)n2)cn1` [Example 21, (1S,3S)-3-((2-((2-(1-(Cyclopropylsulfonyl)-1H-pyrazol-4-yl)pyrimidin-4-yl)amino)-5-(1-(difluoromethyl)-1H-pyrazol-3-yl)pyridin-4-yl)amino)cyclohexan-1-ol], the IC50 in assay [1] (setting [6]) was 1.3 nM; in assay [1] (setting [7]) it was 0.3 nM; in assay [2] (setting [8]), 0.9 nM; in assay [2] (setting [9]), 0.2 nM; in assay [3] (setting [10]), 0.7 nM; in assay [3] (setting [11]), 0.3 nM. The IC50 in assay [4] (setting [12]) worked out at 8.9 nM; in assay [4] (setting [13]), 0.9 nM; in assay [5] (setting [14]), 5010 nM; in assay [5] (setting [15]), 5.4 nM.

As for `O=S(=O)(C1CC1)n1cc(-c2nccc(Nc3cc(N[C@H]4CC[C@@H](CO)CC4)c(-c4cc5n(n4)CCCC5)cn3)n2)cn1` [Example 60, ((1s,4s)-4-((2-((2-(1-(Cyclopropylsulfonyl)-1H-pyrazol-4-yl)pyrimidin-4-yl)amino)-5-(4,5,6,7-tetrahydropyrazolo[1,5-a]pyridin-2-yl)pyridin-4-yl)amino)cyclohexyl)methanol], the IC50 in assay [1] (setting [6]) was found to be 4.3 nM; in assay [1] (setting [7]), 1.1 nM; in assay [2] (setting [9]) it was 0.5 nM; in assay [3] (setting [10]), 2.5 nM; in assay [3] (setting [11]), 1.1 nM; in assay [4] (setting [12]) it was 2.4 nM. The IC50 in assay [4] (setting [13]) is 1.1 nM; in assay [5] (setting [14]), 326 nM; in assay [5] (setting [15]), 2.2 nM.

As to `O=S(=O)(C1CC1)n1cc(-c2nccc(Nc3cc(N[C@H]4CC[C@@H](NCCF)CC4)c(-c4ccn(C(F)F)n4)cn3)n2)cn1` [Example 9, N^2-(2-(1-(Cyclopropylsulfonyl)-1H-pyrazol-4-yl)pyrimidin-4-yl)-5-(1-(difluoromethyl)-1H-pyrazol-3-yl)-N^4-((1s,4s)-4-((2-fluoroethyl)amino)cyclohexyl)pyridine-2,4-diamine], the IC50 in assay [1] (setting [6]) stood at 0.5 nM; in assay [2] (setting [8]), 0.5 nM; in assay [3] (setting [10]), 4.3 nM; in assay [4] (setting [12]), 7.6 nM; in assay [5] (setting [14]), 7100 nM.

`O=S(=O)(C1CC1)n1cc(-c2nccc(Nc3cc(N[C@H]4CC[C@@H](CN5CCC5)CC4)c(-c4ccn(CC(F)(F)F)n4)cn3)n2)cn1` [Example 272, N^4-((1s,4s)-4-(Azetidin-1-ylmethyl)cyclohexyl)-N^2-(2-(1-(cyclopropylsulfonyl)-1H-pyrazol-4-yl)pyrimidin-4-yl)-5-(1-(2,2,2-trifluoroethyl)-1H-pyrazol-3-yl)pyridine-2,4-diamine]: the IC50 in assay [1] (setting [6]) was found to be 0.5 nM; in assay [1] (setting [7]), 0.3 nM; in assay [2] (setting [8]) it was 0.2 nM; in assay [2] (setting [9]), 0.1 nM; in assay [3] (setting [10]) it was 0.5 nM; in assay [3] (setting [11]), 23.9 nM. Also, the IC50 in assay [4] (setting [12]) is 1.1 nM; in assay [4] (setting [13]), 0.4 nM; in assay [5] (setting [14]), 325 nM; in assay [5] (setting [15]), 1.4 nM.

The values above are taken from patent US12258327B2, “5-membered heteroaryl-containing aminopyridine compounds as EGFR inhibitors” (YUHAN CORPORATION, priority 2021, dated 2025).
